From publication PMC5063506, “A Novel Class of Small Molecule Agonists with Preference for Human over Mouse TLR4 Activation” (PLoS ONE, 2016)

How the values were obtained:
wild-type C57BL/6 mice = experiment: In vivo serum cytokines in wild-type C57BL/6 mice; design: species or system mouse; conditions: 50 μg IP, serum at 2 h (IL-12 p40, IL-6) and 6 h (IL-12 p40, MIG, RANTES)
Source text: (§1) The humanized TLR4/MD-2 mice, described in detail in [15], express human TLR4 and human MD-2 from bacterial artificial chromosome transgenes that were bred to the mouse TLR4/MD-2 double-knockout (DKO) on a C57BL/6J background. Because the hMD-2 BAC transgene is integrated on the Y-chromosome, only male mice were used in the study. Generally, hMD-2 BAC+ males are bred to hTLR4 BAC+ females (both on DKO background) and male pups were screened for the presence of hTLR4 BAC. Double positives served as the fully humanized TLR4/MD-2 mice and hTLR4 BAC negative mice served as functional KO. Wild-type C57BL/6 mice were bred in parallel. All breeding was performed in an SPF facility at the University of Washington and all protocols were approved by the University of Washington IACUC. For in vivo cytokines, mice were injected intraperitoneally with 50 μg of either AZ618 or MPL in 0.2 ml PBS. Mice were bled from the retroorbital sinus 2 h after injection and terminal cardiocentesis was performed at 6 h for the second blood sample. Serum samples were analyzed via MILLIPLEX kits (EMD Millipore).
(§2) C57BL/6 mice (6–12 per group) were immunized IP with 50 μg MPL or AZ618 and then were bled at 2 h via retro-orbital route and at 6 h via cardiac puncture. Serum was analyzed by multiplex Millipore kits for cytokine content. […]

hTLR4/MD2 KIKO mice = experiment: In vivo serum cytokines in hTLR4/MD2 KIKO mice; design: species or system mouse; conditions: 50 μg IP, serum at 2 h and 6 h
Source text: as §1, §2

mouse splenocytes = experiment: Cytokine induction in mouse splenocytes (mouse MILLIPLEX); type: cell-based, BALB/c mouse; conditions: 1 and 0.2 μg/ml, 24 h
Procedure: Splenocytes were isolated from naïve BALB/c mice by dissociating spleens with a GentleMACS (Miltenyi) instrument, then filtration through […] screens. For other species, blood was obtained through venipuncture or cardiac puncture into heparinized tubes, then diluted 1:1 with PBS or HBSS and layered onto Ficoll-Histopaque (GE Healthcare) for blood from healthy human volunteers and cynomolgus macaques, Lympholyte-Mammal (Cedarlane Labs) for New Zealand white rabbits, Sprague-Dawley rats, Hartley guinea pigs, cotton rats, and ferrets, followed by standard density centrifugation techniques. […]
PBMCs (human, cynomolgus macaque, guinea pig, ferret, rabbit, rat, and cotton rat) or splenocytes (mouse) were seeded onto 96-well flat bottom plates at 5 x 10^5 cells/well and stimulated with TLR4 agonists at 1 and 0.2 μg/ml for 24 h at 37°C. […] For human, cyno, mouse, and rat, cell-free SNs were analyzed via human, NHP, mouse, and rat MILLIPLEX kits. For GP, ferret, rabbit, and CR, cells were lysed by Millipore lysing buffer and snap frozen at -70 C until ready for analysis by Affymetrix QuantiGene 2.0 Plex kits. […] Signal was detected using a Bioplex 200 instrument (BioRad). […]
Fig 6 The Ugi compound-induced cytokine profile is similar to MPL and LPS in human PBMCs but not mouse splenocytes. […] SNs were analyzed via human and mouse MILLIPLEX kits. […]

Row | Compound | serum cytokine induction in wild-type C57BL/6 mice (wild-type C57BL/6 mice) | serum cytokine induction in hTLR4/MD2 KIKO mice (hTLR4/MD2 KIKO mice) | reactivity of mouse splenocytes (cytokine secretion) (mouse splenocytes)
1 | Cc1cc(C)cc(N(C(=O)c2cc(-c3ccccc3)n(-c3ccccc3)n2)C(C(=O)NC2CCCC2)c2ccc(CC(=O)O)cc2)c1 (stereo not drawn) [AZ618, 2-(4-(2-(cyclopentylamino)-1-(N-(3,5-dimethylphenyl)-1,5-diphenyl-1H-pyrazole-3-carboxamido)-2-oxoethyl)phenyl)acetic acid] | not AZ618 induced | induced a very similar pattern of cytokines | 
2 | CC(C)(C)c1ccc(N(C(=O)c2cc(-c3ccccc3)n(-c3ccccc3)n2)C(C(=O)NC2CCCC2)c2ccc(CC(=O)O)cc2)cc1 (stereo not drawn) [AZ902] |  |  | marginal activation
